# Reference: US4857516A, “Coumaran derivatives and their pharmaceutical use” (Takeda Chemical Industries, Ltd., priority 1986, dated 1989)
# How the values were obtained:
# [1] = tested on: urinary incontinence in rats with spinal cord compression; experiment: Incidence of rats showing urinary incontinence (spinal cord compression); format: in vivo, rat; design: Incidence of rats showing urinary incontinence: unit not given here; details: 40 mg/kg, p.o.
# Text: (§1) Male Jcl:Wistar rats, weighing about 350 g at the time of spinal cord compression were used. A spinal cord injury was produced in rats by compressing the spinal cord with a stainless screw of 2.8 mm length and 2 mm diameter at thoracic 11 (T11) level under pentobarbital anesthesia. On the day of the operation, the screw was placed so that the end was just above the subarachnoid membrane of the spinal cord.
# (§2) On the following day, the screw was completely tightened to compress the spinal cord without penetrating the subarachnoid membrane. After compression of the spinal cord for 60 min., the screw was removed. Test compounds were given orally 5 min. after the removal of screw.
# (§3) The median neurological score of the drug-treated groups were compared with that saline-teated control group. Statistical analysis was done using the Mann-Whitney U-test. The incidence of rats showing urinary incontinence was also compared by the .chi.^2 -test.
# [2] = tested on: generation of HHT in rat platelets; experiment: Inhibitory effect on the generation of 12-hydroxyheptadeca-5,8,10-trienoic acid (HHT) in rat platelets; format: cell-based; details: rat platelet rich plasma
# Protocol: Blood was collected in 3.2 v/v % sodium citrate (0.8 ml for 7.2 ml of blood) from the abdominal aorta of male Wister rats (Jcl, 12 to 15 weeks) anesthesized with pentobarbital. Platelet rich plasma (PRP) was obtained by centrifuging the blood at 800 rpm for 10 min at room temperature. Platelet poor plasma (PPP) was prepared by centrifuging the remaining blood at 3,000 rpm for 10 min. The platelet concentration of PRP was adjusted to 1,000,000/μl with PPP. […]
# The reaction was stopped by adding 100 ml of ethanol and the mixture was allowed to stand for 10 min. at room temperature. The reaction mixture was centrifuged at 2,000 rpm for 10 min. and the supernatant obtained was evaporated. To the concentrate, 0.2 ml of 60 v/v % aqueous ethanol was added.
# 100 μl of this solution was subjected to high performance liquid chromatography for quantitative analysis of HHT. The amount of HHT was determined by measurement of absorbance at 237 nm with a UV absorption monitor.
# The inhibitory effect (IE) on the generation of HHT is expressed by (1-b/a)×100, wherein a is the peak height or the peak area corrected with the peak due to the internal standard in the absence of the compound (I) or a pharmaceutically acceptable salt thereof, and b is the peak height or the peak area corrected with the peak due to the internal standard in the compound (I) or a pharmaceutically acceptable salt thereof.
# [3] = tested on: excitatory behavior induced by FeCl2 in mice; experiment: Excitatory behavior induced by spinal intrathecal injection of FeCl2 in mice; format: in vivo, mouse; details: 100 mg/kg p.o.
# Protocol: Male Slc:ICP mice (5 weeks) were used. Each group consisted of 10 mice. 5 μl of 50 mM FeCl2 in saline was injected into spinal subarchnoid space betwen the 1st sacral and the 6th lumbar segment, the behavioral responses were observed from 15 min. to 1 hr. after the intrathecal injection of FeCl2 and scored as follows.
# Score Behavioral responses
# 0: normal (no abnormal behavior)
# 1: vigorously biting lower abdomen or lower extremities
# (a) extremely biting lower body with rolling
# (b) hyperreactivity and agressive to external stmuli
# at least one of above three behavioral changes were observed
# 4: tonic convulsion or paralysis of lower extremities.
# The test compounds (100 mg/kg) were orally administered 30 min. prior to FeCl2 injection.
# [4] = tested on: lipid peroxide production in rat brain homogenates; experiment: Inhibitory action on lipid peroxide production in rat brain homogenates; format: biochemical; details: 5 v/v % rat brain homogenate, pH 7.4, 1 hour at 37° C.; read-out: Inhibition (IC50) of lipid peroxide production
# Protocol: The male SD rat (12 weeks) brain tissue was extracted under anesthesia after depletion. The extracted brain tissue was used as 5 v/v % homogenate in phosphate buffer (pH 7.4). After incubation of the homogenate for 1 hour at 37° C., the peroxide produced was determined by the thiobarbituric acid method according to the method described in Analytical Biochemistry, 95, 551 (1979).
# Before incubation, test compounds were added in 5 v/v % homogenate so that their final concentration becomes 10^-5 M. […]
# 5-lipoxygenase = target: T1, 5-lipoxygenase (Rattus norvegicus, UniProt P12527); experiment: Inhibition of 5-lipoxygenase (5-HETE production in RBL-1 cells); format: cell-based
# T1 construct: endogenous in cells; host or cells: RBL-1 (rat basophilic leukemia cells)
# T1 sequence (P12527 1-673): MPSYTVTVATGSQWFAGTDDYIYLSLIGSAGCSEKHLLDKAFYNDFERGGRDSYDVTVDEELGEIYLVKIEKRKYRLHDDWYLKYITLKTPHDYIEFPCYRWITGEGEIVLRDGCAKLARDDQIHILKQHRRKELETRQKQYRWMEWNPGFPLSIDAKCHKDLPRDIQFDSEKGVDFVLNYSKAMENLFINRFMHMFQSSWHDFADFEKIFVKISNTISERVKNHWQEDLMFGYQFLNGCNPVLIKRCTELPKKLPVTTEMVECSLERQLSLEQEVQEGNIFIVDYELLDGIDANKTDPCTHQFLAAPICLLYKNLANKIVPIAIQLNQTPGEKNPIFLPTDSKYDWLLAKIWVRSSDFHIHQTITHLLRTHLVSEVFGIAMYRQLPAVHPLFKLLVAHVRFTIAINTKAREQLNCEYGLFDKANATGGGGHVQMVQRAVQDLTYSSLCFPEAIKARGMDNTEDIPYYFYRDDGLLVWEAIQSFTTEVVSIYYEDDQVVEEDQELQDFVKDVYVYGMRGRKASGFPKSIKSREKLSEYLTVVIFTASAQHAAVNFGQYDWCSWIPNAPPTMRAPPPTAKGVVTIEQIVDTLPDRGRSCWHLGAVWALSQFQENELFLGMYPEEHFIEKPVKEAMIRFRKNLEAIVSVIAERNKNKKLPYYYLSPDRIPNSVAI
# Protocol: 10^7 RBL-1 cells (rat basophilic leukemia cells) were suspended in 0.5 ml of MCM (mast cell medium). […] Then 4 ml of ethanol was added, and the mixture was well shaken and kept at room temperature for 10 min.
# The mixture was centrifuged for 10 min. (2000 rpm), and the supernatant was separated. The supernatant obtained was concentrated to dryness under reduced pressure. To the residue 0.5 ml of 60 v/v % aqueous methanol was added. One hundred μl of this solution was subjected to high performance liquid chromatography for quantitative analysis of 5-HETE (5-hydroxyeicosatetraenoic acid). The amount of 5-HETE was determined by measurement of the absorbance at 237 nm with a UV absorption monitor.
# The inhibitory effect (IE) of production of 5-HETE is expressed by (1-b/a)×100, wherein a is the peak height or the area corrected with the peak due to the internal standard in the absence of the compound (I) or a pharmaceutically acceptable salt thereof, and b is the peak height or peak area corrected with the peak due to the internal standard in the presence of the compound (I) or a pharmaceutically acceptable salt thereof.
# [5] = tested on: neurological deficits caused by spinal cord compression in rats; experiment: Functional neurologic impairment induced by spinal cord compression in rats; format: in vivo, rat; details: 40 mg/kg, p.o.
# Text: as §1, §2
# 0; flaccid paralysis, no movement of hind limbs, no response to pinching of tail with foreceps (i.e. movement of fore limbs, biting foreceps, vocalization)
# 1; no movement of hind limbs, but responds to pinching of tail with foreceps
# 2; uncoordinated movement (loss of coordination between limbs), but can not support own weight
# 3; movement with an impairment (general coordination between limbs), but can not support own weight
# 4; walking with a slight ataxia of the hind limbs, but can support own weight
# as §3
# [6] = day 3, Ex. 7 *p < 0.05, Ex. 20 **p < 0.01
smiles,measurement,setting,value
"Cc1c(C)c2c(c(C)c1O)C(c1ccc(F)cc1)C(C)(C)O2 (stereo not drawn) [Example 7, 3-(4-fluorophenyl)-5-hydroxy-2,2,4,6,7-pentamethyl-2,3-dihydrobenzofuran]",Incidence of rats showing urinary incontinence,"[1]; day 1, Ex. 20 **p < 0.01",42.9
same,Incidence of rats showing urinary incontinence,"[1]; day 2, Ex. 20 **p < 0.01",14.3
same,Incidence of rats showing urinary incontinence,[1]; [6],7.1
same,Incidence of rats showing urinary incontinence,"[1]; day 5, Ex. 20 **p < 0.01",7.1
same,Incidence of rats showing urinary incontinence,"[1]; day 7, Ex. 7 *p < 0.05",0
same,Incidence of rats showing urinary incontinence,[1]; day 10,0
same,Incidence of rats showing urinary incontinence,[1]; day 14,0
same,incidence of urinary incontinence (in words),[1]; Table 4(IV),reduced the incidence of urinary incontinence
same,inhibition at 100 µM,[2]; 10^-4 M,49%
same,inhibition at 10 µM,[2]; 10^-5 M,35%
same,Score (mean behavioral score),"[3]; 30 min. prior to FeCl2, 0 normal to 5 death",0.3
same,Percent inhibition (of mean score),[3]; vs vehicle p.o.,93%
same,IC50,[4],230 nM
same,inhibition at 1 µM,5-lipoxygenase; 10^-6 M,99%
same,inhibition at 0.1 µM,5-lipoxygenase; 10^-7 M,43%
same,inhibition at 0.01 µM,5-lipoxygenase; 10^-8 M,13%
same,neurological score (median value),"[5]; day 1, 0 flaccid paralysis to 5 normal gait, Ex. 20 **p < 0.01",2
same,neurological score (median value),[5]; [6],2
same,neurological score (median value),"[5]; day 7, Ex. 20 **p < 0.01",3
same,neurological score (median value),"[5]; day 14, Ex. 20 *p < 0.05",4
same,neurological impairment caused by spinal cord compression (in words),[5]; Table 4(III),ameliorated the neurological impairment
